Legend:
[1] = system: SK-OV-3; assay: Inhibitory activity against SKOV3 (human ovarian carcinoma) cell line without Escherichia coli nitroreductase combination after 18 hours drug exposure; assay type: functional, cell-based
[2] = Ratio of the activity in absence to that of presence of Escherichia coli nitroreductase V79 (chinese hamster fibroblast) cell line; assay type: functional
[3] = system: SK-OV-3; assay: Inhibitory activity against SKOV3 (human ovarian carcinoma) cell line with Escherichia coli nitroreductase combination after 18 hours drug exposure; assay type: functional, cell-based; conditions: SK-OV-3, 18 h
[4] = Inhibitory activity against V79 (chinese hamster fibroblast) cell line with Escherichia coli nitroreductase combination after 72 hours drug exposure; assay type: functional, cell-based, Cricetulus griseus
[5] = Ratio of the activity in absence to that of presence of Escherichia coli nitroreductase in SKOV3 (human ovarian carcinoma) cell line; assay type: functional
[6] = Inhibitory activity against V79 (chinese hamster fibroblast) cell line without Escherichia coli nitroreductase combination after 72 hours drug exposure; assay type: functional, cell-based, Cricetulus griseus
[7] = Inhibitory activity against V79 (chinese hamster fibroblast) cell line without Escherichia coli nitroreductase combination after 1 hour drug exposure; assay type: functional, cell-based, Cricetulus griseus
[8] = Inhibitory activity against V79 (chinese hamster fibroblast) cell line with Escherichia coli nitroreductase combination after 1 hour drug exposure; assay type: functional, cell-based, Cricetulus griseus
[9] = Kcat was determined; assay type: ADME
[10] = system: SK-OV-3; assay: Inhibitory activity against SKOV3 (human ovarian carcinoma) cell line infected at lower infection rate of 10 pfu/cell with Escherichia coli nitroreductase combination after 18 hours drug exposure; assay type: functional, cell-based; conditions: SK-OV-3, 18 h
[11] = Ratio of Kcat to that of Km was determined; assay type: ADME
[12] = Ratio of the activity in absence to that of presence of the Escherichia coli nitroreductase in SKOV3 (human ovarian carcinoma) cell line infected at lower infection rate of 10 pfu/cell; assay type: functional

SMILES | IC50 ([1]; Homo sapiens, SK-OV-3, 18 h) | Ratio [2] | IC50 [3] | IC50 [4] | Ratio [5] | IC50 [6] | IC50 [7] | IC50 [8] | k cat [9] | IC50 [10] | k cat/Km [11] | Ratio [12] | IC50 ([1]; sk-ov-3) | 1/2Kcat/Km [11]
O=[N+]([O-])c1ccc2c(c1)NP(=O)(N(CCCl)CCCl)OC2 (stereo not drawn) | 550 µM | >33 | 55 µM | 3 µM | 10 | > 100 µM | – | – | – | – | – | – | – | –
O=[N+]([O-])c1cccc([C@H]2CCNP(=O)(N(CCCl)CCCl)O2)c1 (stereo partly drawn) | 680 µM | – | 4.7 µM | 0.029 µM | 145 | 832 µM | > 100 µM | 0.34 µM | – | – | – | – | – | –
O=[N+]([O-])c1cccc([C@@H]2CCNP(=O)(N(CCCl)CCCl)O2)c1 (stereo partly drawn) | > 1000 µM | – | 5 µM | 0.027 µM | >200 | 608 µM | > 100 µM | 0.17 µM | – | – | – | – | – | –
NP(=O)(OCc1ccc([N+](=O)[O-])cc1)N(CCCl)CCCl (stereo not drawn) | > 10000 µM | – | 1.2 µM | 0.0004 µM | >833 | 67 µM | > 100 µM | 0.01 µM | 14 s⁻¹ | 6.2 µM | 71949 M⁻¹ s⁻¹ | >161 | – | –
NC(=O)c1cc(N2CC2)c([N+](=O)[O-])cc1[N+](=O)[O-] [TRETAZICAR] | > 1000 µM | – | 4.7 µM | 0.036 µM | >213 | 254 µM | > 100 µM | 0.31 µM | 6.6 s⁻¹ | 52 µM | – | 12 | 625 µM | 3746 M⁻¹ s⁻¹
